The values below come from patent US20200392116A1, “SUBSTITUTED HETEROCYCLES AS c-MYC TARGETING AGENTS” (NORTHWESTERN UNIVERSITY, priority 2019, published 2020).

This experiment can be described thus: Potency code of Table 2 (assay not stated).

As to `Cn1nc(-c2ccc(OCc3ccc(Cl)cc3)c(-c3ccc(Cl)c(C(F)(F)F)c3)c2O)cc1C(F)(F)F` [NUCC-0200733], the Potency code result is on record as “+ (>40 +)”.

Take `Oc1c(-c2cc(C(F)(F)F)[nH]n2)ccc(OCc2ccc(Cl)cc2)c1-c1ccc(F)c(C(F)(F)F)c1` [NUCC-0200734]: the Potency code entry is “+ (>40 +)”.

`Cn1nc(C(F)(F)F)cc1-c1ccc(OCc2ccc(Cl)cc2)c(-c2ccc(F)c(C(F)(F)F)c2)c1O` [NUCC-0200735]: the Potency code result was “+ (>40 +)”.

Consider `Cn1nc(-c2ccc(OCc3ccc(Cl)cc3)c(-c3ccc(F)c(C(F)(F)F)c3)c2O)cc1C(F)(F)F` [NUCC-0200736], for which the Potency code result was “+ (>40 +)”.

For the molecule `Oc1c(-c2cc(C(F)(F)F)[nH]n2)ccc(OCc2ccc(Cl)cc2)c1-c1ccc(C(F)(F)F)cc1Cl` [NUCC-0200737], the Potency code result is “+ (>40 +)”.

Turning to `Cn1nc(C(F)(F)F)cc1-c1ccc(OCc2ccc(Cl)cc2)c(-c2ccc(C(F)(F)F)cc2Cl)c1O` [NUCC-0200738], the Potency code entry is “+++ (10-30 +++)”.

With `CCCc1c(OCc2ccc(Cl)cc2)ccc(-c2cc(C(F)(F)F)n[nH]2)c1O` [NUCC-0200740], the Potency code entry is recorded as “+ (>40 +)”.

For the molecule `Cn1cc(-c2ccc(OCc3ccc(Cl)cc3)cn2)c(C(F)(F)F)n1` [NUCC-0200741], the Potency code result is reported as “+ (>40 +)”.

Take `Cn1cc(-c2ccc(NCc3ccc(Cl)cc3)cn2)c(C(F)(F)F)n1` [NUCC-0200742]: the Potency code result is given as “+ (>40 +)”.

As for `Cn1cc(-c2ccc(OCc3ccc(Cl)cc3)cc2F)c(C(F)(F)F)n1` [NUCC-0200743], the Potency code entry was “+ (>40 +)”.

Regarding `Cn1nc(C(F)(F)F)cc1-c1ccc(OCc2ccc(Cl)cc2)cc1Cl` [NUCC-0200744], the Potency code entry is “+ (>40 +)”.

As to `Cn1nc(C(F)(F)F)cc1-c1ccc(OCc2ccc(Cl)cc2)cc1N` [NUCC-0200745], the Potency code entry is listed as “+ (>40 +)”.

Consider `Cn1cc(-c2ccc(OCc3ccc(Cl)cc3)cc2N)c(C(F)(F)F)n1` [NUCC-0200746], for which the Potency code entry is reported as “+ (>40 +)”.

For the molecule `Cn1cc(-c2cnc(OCc3ccc(Cl)cc3)cn2)c(C(F)(F)F)n1` [NUCC-0200747], the Potency code result is listed as “+ (>40 +)”.

With `Cn1nc(C(F)(F)F)cc1-c1ccc(OCc2ccc(Cl)cc2)cc1C#N` [NUCC-0200812], the Potency code entry is “+ (>40 +)”.

Regarding `Cn1cc(-c2ccc(OCc3ccc(Cl)cc3)cc2CO)c(C(F)(F)F)n1` [NUCC-0200813], the Potency code entry is given as “+ (>40 +)”.

On to `Cn1cc(-c2ccc(OCc3ccc(Cl)cc3)cc2Cl)c(C(F)(F)F)n1` [NUCC-0200814], for which the Potency code result is on record as “+ (>40 +)”.

`Cn1cc(-c2ccc(OCc3ccc(Cl)cc3)cc2C=O)c(C(F)(F)F)n1` [NUCC-0200815]: the Potency code entry is “+ (>40 +)”.

On to `Cn1nc(C(F)(F)F)cc1-c1ccc(OCc2ccc(Cl)cc2)cc1C(N)=O` [NUCC-0200816], for which the Potency code entry is listed as “+ (>40 +)”.

`Cn1nc(C(F)(F)F)cc1-c1ccc(NC(=O)c2ccc(Cl)cc2)cc1O` [NUCC-0200817]: the Potency code entry is given as “+ (>40 +)”.

With `COC(=O)c1cc(-c2ccc(OCc3ccc(Cl)cc3)c(-c3cc(C(F)(F)F)cc(C(F)(F)F)c3)c2O)nn1C` [NUCC-0200970], the Potency code result is given as “+ (>40 +)”.

Turning to `Cn1nc(-c2ccc(OCc3ccc(Cl)cc3)c(-c3cc(C(F)(F)F)cc(C(F)(F)F)c3)c2O)cc1C(=O)O` [NUCC-0200971], the Potency code result is recorded as “++++ (<10 ++++)”.

Take `O=C(O)c1cc(-c2ccc(OCc3ccc(Cl)cc3)c(-c3cc(C(F)(F)F)cc(C(F)(F)F)c3)c2O)n[nH]1` [NUCC-0200973]: the Potency code result is recorded as “++++ (<10 ++++)”.

With `Cn1nc(C(F)(F)F)cc1-c1ccc(OCc2ccc(Cl)cc2)c(-c2cccc(C(F)(F)F)c2)c1O` [NUCC-0200974], the Potency code entry is “+ (>40 +)”.

As to `Cn1nc(C(F)(F)F)cc1-c1ccc(OCc2ccc(Cl)cc2)c(-c2ccc(Cl)c(C(F)(F)F)c2)c1O` [NUCC-0200975], the Potency code result is listed as “+ (>40 +)”.

Take `Cn1nc(C(F)(F)F)cc1-c1ccc(OCc2ccc(Cl)cc2)cc1F` [NUCC-0200977]: the Potency code entry is on record as “+ (>40 +)”.
